{"source": "patent US10105377B2", "about": "“Compounds and nail polish” (Anacor Pharmaceuticals, Inc., priority 2014, dated 2018)", "key": {"[1]": {"test": "Tavaborole penetration of fingernails with one, two, or four layers of nail polish (vertical diffusion cells)", "type": "in vitro ADME, human", "conditions": "from Tavaborole Topical Solution, 5%; through up to four layers of nail polish", "source_text": "Female human ex vivo, cadaver fingernails from eight donors were cleaned of any underlying tissue, rinsed with water to remove any additional materials from the surface and then characterized for width, length, thickness, and weight. Four different treatment groups were used to evaluate different nail polish application practices. In the first treatment group, one nail from each of seven donors (randomized to treatment group) was painted according to the first nail polish application practice. In the second treatment group, a second nail from each of seven donors (randomized to treatment group) was painted according to the second nail polish application practice. In the third treatment group, a third nail from each of seven donors (randomized to treatment group) was painted according to the third nail polish application practice. In the fourth treatment group, a fourth nail from each of seven donors (randomized to treatment group) was painted according to the fourth nail polish application practice. […]\nVertical diffusion cells were filled with pre-warmed receiving medium of phosphate buffered saline (pH 7.4) and a small stir bar, and were allowed to equilibrate to 32±1.0° C. The cell volumes were determined prior to initiating the study. […] Prior to dosing, each cell was evaluated for leaks. […]"}, "[2]": {"conditions": "ex vivo human cadaver fingernails; relative to ciclopirox; cited from earlier work"}}}
{"smiles": "OB1OCc2cc(F)ccc21", "note": "[tavaborole, 5-fluoro-1,3-dihydro-1-hydroxy-2,1-benzoxaborole]", "values": [{"measurement": "penetration through layers of nail polish (in words)", "setting": "[1]", "result": "able to penetrate"}, {"measurement": "quantity through the nail compared with ciclopirox", "setting": "[2]", "result": 250, "unit": "fold"}]}
